Experimental findings from ChEMBL document CHEMBL3046011, “QSAR analysis of 2-sulfonylphenyl-3-phenyl-indole derivatives as novel anti-inflammatory compounds” (Med Chem Res, 2009) are described below.

pIC50: −log10 of the molar value.

The target of the test is T1, Prostaglandin G/H synthase 2 (Mus musculus, UniProt Q05769).
T1 sequence (Q05769 whole entry): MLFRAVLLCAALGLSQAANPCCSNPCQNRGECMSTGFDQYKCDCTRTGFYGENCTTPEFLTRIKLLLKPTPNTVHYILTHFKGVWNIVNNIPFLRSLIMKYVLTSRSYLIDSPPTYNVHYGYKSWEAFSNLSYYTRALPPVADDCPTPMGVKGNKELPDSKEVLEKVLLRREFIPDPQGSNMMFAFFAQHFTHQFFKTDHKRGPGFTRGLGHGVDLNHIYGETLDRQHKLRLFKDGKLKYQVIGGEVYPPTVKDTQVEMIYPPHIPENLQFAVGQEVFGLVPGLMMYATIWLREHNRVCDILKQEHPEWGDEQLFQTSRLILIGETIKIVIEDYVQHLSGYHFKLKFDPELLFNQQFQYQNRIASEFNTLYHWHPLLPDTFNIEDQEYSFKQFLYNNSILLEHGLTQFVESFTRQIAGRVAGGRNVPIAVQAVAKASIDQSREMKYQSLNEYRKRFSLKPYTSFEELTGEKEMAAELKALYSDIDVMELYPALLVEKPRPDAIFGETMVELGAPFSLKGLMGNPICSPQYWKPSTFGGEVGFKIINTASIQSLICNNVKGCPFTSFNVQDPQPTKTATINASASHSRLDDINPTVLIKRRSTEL
In words: Inhibition of COX2 in Mus musculus (mouse) peritoneal macrophage.
The pIC50 is −log10 of the IC50, conventionally taken in molar units. Low readings indicate a high IC50, high ones a low IC50. `COc1ccc(-c2c(-c3ccc(S(C)(=O)=O)cc3)[nH]c3ccccc23)cc1` had a pIC50 of 10.70.

The compound `NS(=O)(=O)c1ccc(-c2[nH]c3ccccc3c2-c2ccc(Cl)cc2)cc1` had a pIC50 of 7.48.

As to `NS(=O)(=O)c1ccc(-c2[nH]c3ccc(Cl)cc3c2-c2ccccc2)cc1`, the pIC50 was 9.85. In turn, `CS(=O)(=O)c1ccc(-c2[nH]c3ccccc3c2-c2ccccc2)cc1` showed a pIC50 of 9.22.

`Cc1ccc2[nH]c(-c3ccc(S(C)(=O)=O)cc3)c(-c3ccccc3)c2c1` showed a pIC50 of 9.55. Turning to `Cc1ccc2[nH]c(-c3ccc(S(N)(=O)=O)cc3)c(-c3ccccc3)c2c1`, the pIC50 was 10.70.

The compound `CC(=O)NS(=O)(=O)c1ccc(-c2[nH]c3ccccc3c2-c2ccccc2)cc1` showed a pIC50 of 9.75. The compound `Cc1ccc(-c2c(-c3ccc(S(C)(=O)=O)cc3)[nH]c3ccccc23)cc1C` showed a pIC50 of 9.77.

Regarding `NS(=O)(=O)c1ccc(-c2[nH]c3ccccc3c2-c2ccccc2)cc1`, the pIC50 is 10.05.
